Reference: patent publication US6358885B1, “Substituted phenylheterocyclic herbicides” (Mississippi State University, priority 1992, dated 2002)

Experiments:
barley = assay: Test B preemergence/postemergence greenhouse plant response rating 0 to 10; format: in vivo, Hordeum vulgare; details: 0 to 10 scale
Procedure, shortened: (§1)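 Test chemicals, dissolved in a non-phytotoxic solvent, were applied to soil at planting and, at the same time, over foliage of seedlings at the one to four leaf stage.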

barnyardgrass = assay: as above; format: in vivo, Echinochloa crus-galli; details: 0 to 10 scale
Procedure, shortened: as §1

blackgrass = assay: as above; format: in vivo, Alopecurus myosuroides; details: 0 to 10 scale
Procedure, shortened: as §1

chickweed = assay: as above; format: in vivo, Stellaria media; details: 0 to 10 scale
Procedure, shortened: as §1

corn [1] = assay: as above; format: in vivo, Zea mays; details: 0 to 10 scale
Procedure, shortened: as §1

sorghum = assay: as above; format: in vivo, Sorghum bicolor; details: 0 to 10 scale
Procedure, shortened: as §1

sugar beet = assay: as above; format: in vivo, Beta vulgaris; details: 0 to 10 scale
Procedure, shortened: as §1

velvetleaf = assay: as above; format: in vivo, Abutilon theophrasti; details: 0 to 10 scale
Procedure, shortened: as §1

purple nutsedge = assay: as above; format: in vivo, Cyperus rotundus; details: 0 to 10 scale
Procedure, shortened: as §1

bedstraw = assay: Test C preemergence/postemergence greenhouse plant response rating 0 to 100; format: in vivo, Galium aparine; details: POSTEMERGENCE; for Plant response rating, Bedstraw: 0 to 100 scale
Procedure, shortened: (§2)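 Compounds in non-phytotoxic solvent applied preemergence to sandy loam one day after planting, postemergence at the 1–4 leaf stage, or to ~2.5 cm floodwater over silt loam.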

corn [2] = assay: as above; format: in vivo, Zea mays; details: POSTEMERGENCE; for Plant response rating, Corn: 0 to 100 scale
Procedure, shortened: as §2

crabgrass = assay: as above; format: in vivo, Digitaria sanguinalis; details: POSTEMERGENCE; for Plant response rating, Crabgrass: 0 to 100 scale
Procedure, shortened: as §2

morningglory = assay: as above; format: in vivo, Ipomoea hederacea; details: POSTEMERGENCE; for Plant response rating, Morningglory: 0 to 100 scale
Procedure, shortened: as §2

rape = assay: as above; format: in vivo, Brassica napus; details: POSTEMERGENCE; for Plant response rating, Rape: 0 to 100 scale
Procedure, shortened: as §2

ryegrass = assay: as above; format: in vivo, Lolium multiflorum; details: POSTEMERGENCE; for Plant response rating Ryegrass: 0 to 100 scale
Procedure, shortened: as §2

wheat = assay: as above; format: in vivo, Triticum aestivum; details: POSTEMERGENCE; for Plant response rating, Wheat: 0 to 100 scale
Procedure, shortened: as §2

wild oat = assay: as above; format: in vivo, Avena fatua; details: POSTEMERGENCE; for Plant response rating, Wild oat: 0 to 100 scale
Procedure, shortened: as §2

rice = assay: Test C flood test plant response rating 0 to 100; format: in vivo, Oryza sativa; details: for Plant response rating Rice Japonica: flood test species listed under POSTEMERGENCE, 0 to 100 scale
Procedure, shortened: as §2

Compound: C#CC(C)N1C(=O)COc2cc(F)c(-c3nn4c(c3Cl)CCCC4)cc21 (stereo not drawn) [Compound 50]
- Plant response rating, Barley (barley; POSTEMERGENCE, Rate 10 g/ha): 3
- Plant response rating, Barley (barley; POSTEMERGENCE, Rate 50 g/ha): 4
- Plant response rating, Barley (barley; PREEMERGENCE, Rate 10 g/ha): 0
- Plant response rating, Barley (barley; PREEMERGENCE, Rate 50 g/ha): 0
- Plant response rating, Barnyardgrass (barnyardgrass; POSTEMERGENCE, Rate 10 g/ha): 3
- Plant response rating, Barnyardgrass (barnyardgrass; POSTEMERGENCE, Rate 50 g/ha): 4
- Plant response rating, Barnyardgrass (barnyardgrass; PREEMERGENCE, Rate 10 g/ha): 0
- Plant response rating, Barnyardgrass (barnyardgrass; PREEMERGENCE, Rate 50 g/ha): 0
- Plant response rating, Blackgrass (blackgrass; POSTEMERGENCE, Rate 10 g/ha): 6
- Plant response rating, Blackgrass (blackgrass; POSTEMERGENCE, Rate 50 g/ha): 6
- Plant response rating, Blackgrass (blackgrass; PREEMERGENCE, Rate 10 g/ha): 4
- Plant response rating, Blackgrass (blackgrass; PREEMERGENCE, Rate 50 g/ha): 6
- Plant response rating, Chickweed (chickweed; POSTEMERGENCE, Rate 10 g/ha): 9
- Plant response rating, Chickweed (chickweed; POSTEMERGENCE, Rate 50 g/ha): 10
- Plant response rating, Chickweed (chickweed; PREEMERGENCE, Rate 10 g/ha): 0
- Plant response rating, Chickweed (chickweed; PREEMERGENCE, Rate 50 g/ha): 10
- Plant response rating, Corn (corn [1]; POSTEMERGENCE, Rate 10 g/ha): 3
- Plant response rating, Corn (corn [1]; POSTEMERGENCE, Rate 50 g/ha): 4
- Plant response rating, Corn (corn [1]; PREEMERGENCE, Rate 50 g/ha): 0
- Plant response rating, Sorghum (sorghum; POSTEMERGENCE, Rate 10 g/ha): 4
- Plant response rating, Sorghum (sorghum; POSTEMERGENCE, Rate 50 g/ha): 3
- Plant response rating, Sorghum (sorghum; PREEMERGENCE, Rate 50 g/ha): 0
- Plant response rating, Sugar beet (sugar beet; POSTEMERGENCE, Rate 10 g/ha): 10
- Plant response rating, Sugar beet (sugar beet; POSTEMERGENCE, Rate 50 g/ha): 10
- Plant response rating, Sugar beet (sugar beet; PREEMERGENCE, Rate 50 g/ha): 10
- Plant response rating, Velvetleaf (velvetleaf; POSTEMERGENCE, Rate 10 g/ha): 9
- Plant response rating, Velvetleaf (velvetleaf; POSTEMERGENCE, Rate 50 g/ha): 10
- Plant response rating, Velvetleaf (velvetleaf; PREEMERGENCE, Rate 50 g/ha): 0
- Plant response rating, Nutsedge (purple nutsedge; POSTEMERGENCE, Rate 10 g/ha): 4
- Plant response rating, Nutsedge (purple nutsedge; POSTEMERGENCE, Rate 50 g/ha): 5
- Plant response rating, Nutsedge (purple nutsedge; PREEMERGENCE, Rate 50 g/ha): 0
- Plant response rating, Bedstraw (bedstraw; 62 g/ha): 100
- Plant response rating, Bedstraw (bedstraw; 250 g/ha): 100
- Plant response rating (0 to 100), Bedstraw (bedstraw; Rate 1 g/ha): 10
- Plant response rating (0 to 100), Bedstraw (bedstraw; Rate 4 g/ha): 20
- Plant response rating (0 to 100), Bedstraw (bedstraw; Rate 16 g/ha): 60
- Plant response rating, Corn (corn [2]; 62 g/ha): 50
- Plant response rating, Corn (corn [2]; 250 g/ha): 60
- Plant response rating (0 to 100), Corn (corn [2]; Rate 1 g/ha): 20
- Plant response rating (0 to 100), Corn (corn [2]; Rate 4 g/ha): 30
- Plant response rating (0 to 100), Corn (corn [2]; Rate 16 g/ha): 40
- Plant response rating, Crabgrass (crabgrass; 62 g/ha): 40
- Plant response rating, Crabgrass (crabgrass; 250 g/ha): 50
- Plant response rating (0 to 100), Crabgrass (crabgrass; Rate 1 g/ha): 10
- Plant response rating (0 to 100), Crabgrass (crabgrass; Rate 4 g/ha): 20
- Plant response rating (0 to 100), Crabgrass (crabgrass; Rate 16 g/ha): 20
- Plant response rating, Morningglory (morningglory; 62 g/ha): 100
- Plant response rating, Morningglory (morningglory; 250 g/ha): 100
- Plant response rating (0 to 100), Morningglory (morningglory; Rate 1 g/ha): 50
- Plant response rating (0 to 100), Morningglory (morningglory; Rate 4 g/ha): 70
- Plant response rating (0 to 100), Morningglory (morningglory; Rate 16 g/ha): 100
- Plant response rating, Rape (rape; 62 g/ha): 100
- Plant response rating, Rape (rape; 250 g/ha): 100
- Plant response rating (0 to 100), Rape (rape; Rate 1 g/ha): 0
- Plant response rating (0 to 100), Rape (rape; Rate 4 g/ha): 0
- Plant response rating (0 to 100), Rape (rape; Rate 16 g/ha): 50
- Plant response rating Ryegrass (ryegrass; 62 g/ha): 40
- Plant response rating Ryegrass (ryegrass; 250 g/ha): 50
- Plant response rating (0 to 100), Ryegrass (ryegrass; Rate 1 g/ha): 0
- Plant response rating (0 to 100), Ryegrass (ryegrass; Rate 4 g/ha): 20
- Plant response rating (0 to 100), Ryegrass (ryegrass; Rate 16 g/ha): 30
- Plant response rating, Wheat (wheat; 62 g/ha): 50
- Plant response rating, Wheat (wheat; 250 g/ha): 60
- Plant response rating (0 to 100), Wheat (wheat; Rate 1 g/ha): 0
- Plant response rating (0 to 100), Wheat (wheat; Rate 4 g/ha): 20
- Plant response rating (0 to 100), Wheat (wheat; Rate 16 g/ha): 30
- Plant response rating, Wild oat (wild oat; 62 g/ha): 30
- Plant response rating, Wild oat (wild oat; 250 g/ha): 50
- Plant response rating (0 to 100), Wild oat (wild oat; Rate 1 g/ha): 10
- Plant response rating (0 to 100), Wild oat (wild oat; Rate 4 g/ha): 20
- Plant response rating (0 to 100), Wild oat (wild oat; Rate 16 g/ha): 20
- Plant response rating (0 to 100), Rice Japonica (rice; POSTEMERGENCE section, flood test, Rate 4 g/ha): 25
- Plant response rating (0 to 100), Rice Japonica (rice; Rate 16 g/ha, under POSTEMERGENCE head (flood test species)): 60
- Plant response rating Rice Japonica (rice; 62 g/ha): 65
- Plant response rating Rice Japonica (rice; 250 g/ha): 90
